In BindingDB's records for doi:10.1016/j.bmcl.2007.10.101 (Solvay Pharmaceuticals, 2008) one finds Ki data, which are given here for one compound.

The target of the assay is Neuronal acetylcholine receptor subunit alpha-4 (Rattus norvegicus, UniProt P09483).
Sequence of Neuronal acetylcholine receptor subunit alpha-4 (P09483 whole entry): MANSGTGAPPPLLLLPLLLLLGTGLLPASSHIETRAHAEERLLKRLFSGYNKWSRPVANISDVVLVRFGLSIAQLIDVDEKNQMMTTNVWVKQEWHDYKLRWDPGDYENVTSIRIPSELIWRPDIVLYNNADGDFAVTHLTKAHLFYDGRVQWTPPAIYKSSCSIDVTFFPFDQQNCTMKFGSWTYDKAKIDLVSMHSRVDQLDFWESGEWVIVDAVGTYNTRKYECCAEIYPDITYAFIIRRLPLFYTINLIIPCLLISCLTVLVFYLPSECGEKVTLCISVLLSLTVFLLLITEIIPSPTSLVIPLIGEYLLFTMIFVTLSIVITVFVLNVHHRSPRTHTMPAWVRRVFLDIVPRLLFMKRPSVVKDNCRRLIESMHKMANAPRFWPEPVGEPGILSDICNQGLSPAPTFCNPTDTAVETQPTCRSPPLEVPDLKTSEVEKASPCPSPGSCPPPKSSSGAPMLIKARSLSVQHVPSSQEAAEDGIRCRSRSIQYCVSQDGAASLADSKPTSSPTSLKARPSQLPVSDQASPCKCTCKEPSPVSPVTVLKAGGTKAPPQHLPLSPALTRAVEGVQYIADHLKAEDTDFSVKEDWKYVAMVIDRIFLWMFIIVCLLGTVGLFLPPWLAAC

As usually defined, the Ki is a dissociation constant, usually derived from enzyme kinetics or from competition with a known ligand. Low readings indicate a stronger hold on the target, high ones a looser hold on the target. On to `c1cnc2[nH]c(C3CCCNC3)cc2c1` (stereo unspecified) [CAS_24759729], for which the inhibition constant Ki was > 10 µM.
